Reference: US8211935B2, “Heterocyclic derivatives for modulation of calcium channels” (Vertex Pharmaceuticals Incorporated, priority 2004, dated 2012)
Where two headings read alike, the source gives them in different places.

Biological target: T1, CaV2.2 (Homo sapiens, UniProt Q00975)
T1 construct: expressed in transfected cells; host or cells: HEK293
Assay: VIPR optical membrane potential assay with electrical stimulation
Assay type: cell-based
Outline: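 HEK293 cells stably expressing CaV2.2, stained with CC2-DMPE (10 μM final) and oxonol voltage-sensitive dyes, compound added with BaCl2. Membrane potential response evoked by 3-5 s electrical stimulation. Read as background-subtracted 460/580 nm emission ratio, response R=Rf/Ri, normalized to mibefradil positive and no-drug negative controls.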

[1] = Table 3, biological assay data, read-out: IC50

T1 sequence (Q00975 whole entry): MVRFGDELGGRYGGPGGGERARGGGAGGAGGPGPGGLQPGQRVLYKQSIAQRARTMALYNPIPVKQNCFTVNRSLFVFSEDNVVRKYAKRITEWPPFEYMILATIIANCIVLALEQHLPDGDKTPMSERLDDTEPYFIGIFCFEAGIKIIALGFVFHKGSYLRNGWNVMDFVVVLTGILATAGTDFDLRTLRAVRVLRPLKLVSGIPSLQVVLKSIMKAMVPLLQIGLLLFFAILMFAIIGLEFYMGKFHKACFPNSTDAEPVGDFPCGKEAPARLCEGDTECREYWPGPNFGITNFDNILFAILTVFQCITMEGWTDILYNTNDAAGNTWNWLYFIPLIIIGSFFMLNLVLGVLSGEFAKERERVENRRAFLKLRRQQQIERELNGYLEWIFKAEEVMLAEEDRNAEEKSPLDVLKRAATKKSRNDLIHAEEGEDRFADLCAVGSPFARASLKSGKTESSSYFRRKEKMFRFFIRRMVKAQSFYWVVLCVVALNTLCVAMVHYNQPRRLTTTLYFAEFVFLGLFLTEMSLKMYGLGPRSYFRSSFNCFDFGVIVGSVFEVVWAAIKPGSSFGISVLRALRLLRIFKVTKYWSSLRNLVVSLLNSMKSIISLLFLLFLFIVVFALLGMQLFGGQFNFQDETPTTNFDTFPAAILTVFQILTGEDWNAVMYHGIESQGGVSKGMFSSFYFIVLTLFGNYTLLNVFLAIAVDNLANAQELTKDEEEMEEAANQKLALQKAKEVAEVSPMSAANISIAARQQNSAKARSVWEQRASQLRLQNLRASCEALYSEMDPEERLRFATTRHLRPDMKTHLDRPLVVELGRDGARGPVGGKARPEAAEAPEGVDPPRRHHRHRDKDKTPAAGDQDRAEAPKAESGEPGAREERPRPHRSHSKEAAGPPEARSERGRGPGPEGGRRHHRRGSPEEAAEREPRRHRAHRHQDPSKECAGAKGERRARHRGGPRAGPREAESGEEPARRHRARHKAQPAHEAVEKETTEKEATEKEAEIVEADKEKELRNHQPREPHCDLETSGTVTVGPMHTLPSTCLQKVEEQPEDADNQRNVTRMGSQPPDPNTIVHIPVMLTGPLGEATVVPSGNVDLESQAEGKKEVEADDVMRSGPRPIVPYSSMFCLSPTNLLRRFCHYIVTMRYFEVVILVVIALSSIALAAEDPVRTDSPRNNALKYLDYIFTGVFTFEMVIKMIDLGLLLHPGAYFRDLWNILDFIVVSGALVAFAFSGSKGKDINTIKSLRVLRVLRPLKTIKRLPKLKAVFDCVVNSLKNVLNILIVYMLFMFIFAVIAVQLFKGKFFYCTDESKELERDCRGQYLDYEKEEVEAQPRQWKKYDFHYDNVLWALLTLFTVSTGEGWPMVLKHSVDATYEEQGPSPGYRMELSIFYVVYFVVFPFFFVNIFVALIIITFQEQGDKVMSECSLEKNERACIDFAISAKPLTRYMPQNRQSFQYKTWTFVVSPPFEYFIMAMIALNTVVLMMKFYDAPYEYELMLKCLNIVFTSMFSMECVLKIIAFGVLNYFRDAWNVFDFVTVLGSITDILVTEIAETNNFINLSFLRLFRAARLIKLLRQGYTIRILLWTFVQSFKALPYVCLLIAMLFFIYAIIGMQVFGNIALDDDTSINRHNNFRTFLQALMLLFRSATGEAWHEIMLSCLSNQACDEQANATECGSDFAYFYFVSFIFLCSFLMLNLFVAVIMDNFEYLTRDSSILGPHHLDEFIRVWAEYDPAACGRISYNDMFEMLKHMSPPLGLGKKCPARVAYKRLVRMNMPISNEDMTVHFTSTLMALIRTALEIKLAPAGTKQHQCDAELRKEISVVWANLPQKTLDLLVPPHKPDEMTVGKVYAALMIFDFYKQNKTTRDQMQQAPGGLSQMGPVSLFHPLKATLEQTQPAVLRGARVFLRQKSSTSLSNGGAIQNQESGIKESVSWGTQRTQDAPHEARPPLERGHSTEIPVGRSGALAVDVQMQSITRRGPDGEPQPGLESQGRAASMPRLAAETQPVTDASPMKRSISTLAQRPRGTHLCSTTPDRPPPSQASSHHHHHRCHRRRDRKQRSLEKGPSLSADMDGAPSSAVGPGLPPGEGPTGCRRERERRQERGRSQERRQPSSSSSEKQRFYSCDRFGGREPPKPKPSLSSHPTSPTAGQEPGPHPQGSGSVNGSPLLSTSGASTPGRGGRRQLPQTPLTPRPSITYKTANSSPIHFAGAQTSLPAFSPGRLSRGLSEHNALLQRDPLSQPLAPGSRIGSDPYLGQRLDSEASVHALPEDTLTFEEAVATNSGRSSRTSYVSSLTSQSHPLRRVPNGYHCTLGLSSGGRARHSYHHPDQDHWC
T1 sequence (P54284 whole entry partner): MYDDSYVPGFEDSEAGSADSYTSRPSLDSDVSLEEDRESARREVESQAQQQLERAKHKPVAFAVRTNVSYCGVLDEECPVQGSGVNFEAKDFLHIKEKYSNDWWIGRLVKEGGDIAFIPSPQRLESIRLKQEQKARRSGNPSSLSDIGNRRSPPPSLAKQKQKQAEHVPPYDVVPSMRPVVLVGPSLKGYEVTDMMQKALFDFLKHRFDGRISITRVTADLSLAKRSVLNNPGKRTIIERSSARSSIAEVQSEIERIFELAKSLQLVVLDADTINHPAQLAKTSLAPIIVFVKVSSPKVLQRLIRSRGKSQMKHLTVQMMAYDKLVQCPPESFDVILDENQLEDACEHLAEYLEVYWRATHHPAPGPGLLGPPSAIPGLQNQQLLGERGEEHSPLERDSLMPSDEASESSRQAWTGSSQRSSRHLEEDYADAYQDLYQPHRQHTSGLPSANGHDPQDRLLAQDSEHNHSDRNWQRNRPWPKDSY
T1 sequence (P54289 25-946 partner limits assumed): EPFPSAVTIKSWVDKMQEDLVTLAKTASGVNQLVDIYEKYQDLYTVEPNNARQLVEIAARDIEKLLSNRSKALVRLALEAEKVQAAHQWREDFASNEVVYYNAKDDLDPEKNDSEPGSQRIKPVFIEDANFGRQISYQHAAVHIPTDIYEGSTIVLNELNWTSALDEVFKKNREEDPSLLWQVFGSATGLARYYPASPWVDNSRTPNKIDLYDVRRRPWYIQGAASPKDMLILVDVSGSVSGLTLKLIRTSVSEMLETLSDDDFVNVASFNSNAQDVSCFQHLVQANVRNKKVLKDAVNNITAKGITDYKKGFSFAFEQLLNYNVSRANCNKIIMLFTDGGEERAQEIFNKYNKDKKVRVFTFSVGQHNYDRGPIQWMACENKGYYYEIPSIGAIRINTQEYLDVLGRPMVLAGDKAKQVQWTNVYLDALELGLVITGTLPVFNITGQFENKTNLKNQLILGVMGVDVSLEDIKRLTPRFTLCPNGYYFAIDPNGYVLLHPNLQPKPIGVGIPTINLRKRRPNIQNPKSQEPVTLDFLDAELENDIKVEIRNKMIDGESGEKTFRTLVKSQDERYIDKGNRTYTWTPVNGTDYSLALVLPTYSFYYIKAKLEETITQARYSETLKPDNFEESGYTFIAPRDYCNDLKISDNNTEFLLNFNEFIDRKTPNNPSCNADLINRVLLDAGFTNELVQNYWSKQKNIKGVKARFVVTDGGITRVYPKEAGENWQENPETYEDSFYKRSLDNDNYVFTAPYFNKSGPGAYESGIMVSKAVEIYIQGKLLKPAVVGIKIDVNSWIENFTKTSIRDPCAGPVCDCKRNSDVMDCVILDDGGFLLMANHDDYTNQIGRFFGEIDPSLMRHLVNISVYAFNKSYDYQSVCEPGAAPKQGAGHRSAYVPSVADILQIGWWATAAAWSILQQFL
T1 sequence (P54289 947-1103 partner limits assumed): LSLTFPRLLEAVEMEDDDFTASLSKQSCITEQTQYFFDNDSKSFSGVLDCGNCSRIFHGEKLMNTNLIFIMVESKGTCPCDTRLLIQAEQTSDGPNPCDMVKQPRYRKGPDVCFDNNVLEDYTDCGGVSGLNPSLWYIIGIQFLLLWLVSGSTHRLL

| Structure (SMILES) | IC50 [1] | IC50 |
| --- | --- | --- |
| Cc1c(C(=O)NCC2CCCO2)oc2ccc(S(=O)(=O)N3CCC(C)CC3)cc12 (centres unmarked) [compound 238] | 5 to 20 µM | – |
| Cc1c(C(=O)N2CCCCC2C)[nH]c2ccc(S(=O)(=O)N3CCC(C)CC3)cc12 (centres unmarked) [compound 239] | 5 to 20 µM | – |
| CC1CC(C)CN(S(=O)(=O)c2ccc3oc(C(=O)N4CCCCCC4)cc3c2)C1 (centres unmarked) [compound 240] | < 5 µM | – |
| CC1CC(C)CN(S(=O)(=O)c2ccc3[nH]c(C(=O)N4CCCCC4C)cc3c2)C1 (centres unmarked) [compound 241] | < 5 µM | – |
| Cc1c(C(=O)NCC2CCOCC2)oc2ccc(S(=O)(=O)N3CC(C)CC(C)C3)cc12 (centres unmarked) [compound 242] | < 5 µM | – |
| Cc1c(C(=O)N2CC(C)CC(C)C2)oc2ccc(S(=O)(=O)N3CCCCCC3)cc12 (centres unmarked) [compound 243] | 5 to 20 µM | – |
| CCN(CC)C(=O)c1cc2cc(S(=O)(=O)N3CCC(C)CC3)ccc2n1C [compound 244] | < 5 µM | – |
| COc1ccccc1CNC(=O)c1oc2ccc(S(=O)(=O)N3CCCCCC3)cc2c1C [compound 245] | 5 to 20 µM | – |
| CC1CCN(S(=O)(=O)c2ccc3oc(C(=O)N4CCCCCC4)cc3c2)CC1 [compound 246] | < 5 µM | – |
| Cc1c(C(=O)NC2CCCC2)oc2ccc(S(=O)(=O)N3CC(C)CC(C)C3)cc12 (centres unmarked) [compound 247] | < 5 µM | – |
| O=C(NCCc1ccccc1)c1cc2cc(S(=O)(=O)N3CCCCCC3)ccc2[nH]1 [compound 248] | < 5 µM | – |
| Cc1c(C(=O)NCC2CCCO2)oc2ccc(S(=O)(=O)N3CCCCCC3)cc12 (centres unmarked) [compound 249] | 5 to 20 µM | – |
| CCN(CC)S(=O)(=O)c1ccc2oc(C(=O)NCc3ccccc3)c(C)c2c1 [compound 250] | 5 to 20 µM | – |
| CC1CC(C)CN(S(=O)(=O)c2ccc3[nH]c(C(N)=O)cc3c2)C1 (centres unmarked) [compound 251] | 5 to 20 µM | – |
| O=C(c1cc2cc(S(=O)(=O)N3CCCCCC3)ccc2[nH]1)N1CCC2(CC1)OCCO2 [compound 252] | – | 5 to 20 µM |
| Cc1c(C(=O)N2CCC3(CC2)OCCO3)[nH]c2ccc(S(=O)(=O)N3CC(C)CC(C)C3)cc12 (centres unmarked) [compound 253] | – | < 5 µM |
| CCCN(CC1CC1)C(=O)c1cc2cc(S(=O)(=O)N3CC(C)CC(C)C3)ccc2[nH]1 (centres unmarked) [compound 254] | < 5 µM | – |
| COc1ccc(CNS(=O)(=O)c2ccc3oc(C(=O)NC4CC4)c(C)c3c2)cc1 [compound 255] | < 20 µM | – |
| CCNC(=O)c1oc2ccc(S(=O)(=O)N3CCC(C)CC3)cc2c1C [compound 256] | 5 to 20 µM | – |
| Cc1c(C(=O)NC2CC2)oc2ccc(S(=O)(=O)N3CCCCC3)cc12 [compound 257] | < 20 µM | – |
| Cc1c(C(=O)NC2CCCC2)[nH]c2ccc(S(=O)(=O)N3CCCCCC3)cc12 [compound 258] | 5 to 20 µM | – |
| Cc1c(C(=O)N(C)C)oc2ccc(S(=O)(=O)N3CCOCC3)cc12 [compound 259] | < 20 µM | – |
| Cc1c(C(=O)NC2CCCC2)oc2ccc(S(=O)(=O)N3CCCCC3)cc12 [compound 260] | < 5 µM | – |
| Cc1c(C(=O)NC2CC2)oc2ccc(S(=O)(=O)N(C)c3ccccn3)cc12 [compound 261] | < 20 µM | – |
| Cc1c(C(=O)N(C(C)C)C(C)C)[nH]c2ccc(S(=O)(=O)N3CCC(C)CC3)cc12 [compound 262] | < 5 µM | – |
| Cc1c(C(=O)N(C(C)C)C(C)C)oc2ccc(S(=O)(=O)N3CCCC(C)C3)cc12 (centres unmarked) [compound 263] | < 5 µM | – |
| Cc1c(C(=O)NC(C)C)oc2ccc(S(=O)(=O)N3CCCC(F)(F)C3)cc12 [compound 264] | < 20 µM | – |

| Structure (SMILES) | IC50 [1] | IC50 |
| --- | --- | --- |
| CCNC(=O)c1cc2cc(S(=O)(=O)N3CCCCCC3)ccc2o1 [compound 265] | 5 to 20 µM | – |
| CC1CCN(S(=O)(=O)c2ccc3oc(C(=O)NCCC4CCOCC4)cc3c2)CC1 [compound 266] | < 5 µM | – |
| Cc1c(C(=O)NCc2ccccc2)oc2ccc(S(=O)(=O)N3CCOCC3)cc12 [compound 267] | < 20 µM | – |
| CCN(CC)C(=O)c1cc2cc(S(=O)(=O)N3CCC(C)CC3)ccc2o1 [compound 268] | < 5 µM | – |
| Cc1c(C(=O)N2CCC(C)CC2)[nH]c2ccc(S(=O)(=O)N3CCC(C)CC3)cc12 [compound 269] | 5 to 20 µM | – |
| O=C(NC1CC1)c1cc2cc(N(C3CCCCC3)S(=O)(=O)c3ccccc3)ccc2[nH]1 [compound 270] | 5 to 20 µM | – |
| CC1CC(C)CN(S(=O)(=O)c2ccc3oc(C(=O)NC(C)C)cc3c2)C1 (centres unmarked) [compound 271] | < 5 µM | – |
| O=C(c1cc2cc(S(=O)(=O)N3CCCCCC3)ccc2[nH]1)N1CCCC1 [compound 272] | < 20 µM | – |
| CC1CCN(C(=O)c2cc3cc(S(=O)(=O)N4CCC(C)CC4)ccc3o2)CC1 [compound 273] | < 5 µM | – |
| CC1CC(C)CN(S(=O)(=O)c2ccc3[nH]c(C(=O)NC(C)C)cc3c2)C1 (centres unmarked) [compound 274] | < 5 µM | – |
| CC1CC(C)CN(S(=O)(=O)c2ccc3[nH]c(C(=O)NCC4CCOCC4)cc3c2)C1 (centres unmarked) [compound 275] | < 5 µM | – |
| CC1CC(C)CN(S(=O)(=O)c2ccc3oc(C(=O)NCc4ccccc4)cc3c2)C1 (centres unmarked) [compound 276] | < 5 µM | – |
| Cc1c(C(=O)N(C)C)oc2ccc(S(=O)(=O)N3CCCCC3)cc12 [compound 277] | < 20 µM | – |
| CCN(CC)S(=O)(=O)c1ccc2oc(C(=O)N(C(C)C)C(C)C)c(C)c2c1 [compound 278] | 5 to 20 µM | – |
| Cc1c(C(=O)N2CCC(C)CC2)oc2ccc(S(=O)(=O)N3CCCCC3)cc12 [compound 279] | 5 to 20 µM | – |
| Cc1c(C(=O)N2CCCC(C)C2)oc2ccc(S(=O)(=O)N3CCCCC3)cc12 (centres unmarked) [compound 280] | 5 to 20 µM | – |
| Cc1c(C(=O)NCC2CCCO2)[nH]c2ccc(S(=O)(=O)N3CC(C)CC(C)C3)cc12 (centres unmarked) [compound 281] | < 5 µM | – |
| COc1ccc(CNC(=O)c2oc3ccc(S(=O)(=O)N4CCC(C)CC4)cc3c2C)cc1 [compound 282] | < 5 µM | – |
| Cc1c(C(=O)NCc2ccccc2)[nH]c2ccc(S(=O)(=O)N3CC(C)CC(C)C3)cc12 (centres unmarked) [compound 283] | < 5 µM | – |
| Cc1c(C(=O)N(C(C)C)C(C)C)oc2ccc(S(=O)(=O)N3CC(C)CC(C)C3)cc12 (centres unmarked) [compound 284] | < 5 µM | – |
| CC1CCN(S(=O)(=O)c2ccc3[nH]c(C(=O)N(C)Cc4ccccc4)cc3c2)CC1 [compound 285] | < 5 µM | – |
| CS(=O)(=O)Nc1ccc2[nH]c(C(=O)NC3CC3)cc2c1 [compound 286] | < 20 µM | – |
| Cc1c(C(=O)N2CCC3(CC2)OCCO3)oc2ccc(S(=O)(=O)N3CCC(C)CC3)cc12 [compound 287] | – | 5 to 20 µM |
| Cc1ccc(NS(=O)(=O)c2ccc3oc(C(=O)NC4CC4)c(C)c3c2)cc1 [compound 288] | 5 to 20 µM | – |
| CC1CC(C)CN(S(=O)(=O)c2ccc3[nH]c(C(=O)NCCc4ccccc4)cc3c2)C1 (centres unmarked) [compound 289] | < 5 µM | – |
| Cc1c(C(=O)N2CCN(C)CC2)[nH]c2ccc(S(=O)(=O)N3CCC(C)CC3)cc12 [compound 290] | 5 to 20 µM | – |
| CCN(CC)S(=O)(=O)c1ccc2oc(C(=O)NCCc3ccccc3)c(C)c2c1 [compound 291] | 5 to 20 µM | – |

| Structure (SMILES) | IC50 [1] | IC50 |
| --- | --- | --- |
| COc1ccc(S(=O)(=O)n2c(C(=O)N3CCCCC3)cc3cc(S(=O)(=O)N4CC(C)CC(C)C4)ccc32)cc1 (centres unmarked) [compound 292] | < 5 µM | – |
| CC1CCN(S(=O)(=O)c2ccc3oc(C(=O)N4CC(C)CC(C)C4)cc3c2)CC1 (centres unmarked) [compound 293] | < 5 µM | – |
| Cc1c(C(=O)NC2CCCC2)oc2ccc(S(=O)(=O)N3CCCCCC3)cc12 [compound 294] | < 5 µM | – |
| CNC(=O)c1cc2cc(S(=O)(=O)N3CCCCCC3)ccc2o1 [compound 295] | 5 to 20 µM | – |
| O=C(NC1CCCCC1)c1cc2cc(S(=O)(=O)N3CCCCCC3)ccc2[nH]1 [compound 296] | < 20 µM | – |
| Cc1c(C(=O)N2CCCCC2C)[nH]c2ccc(S(=O)(=O)N3CC(C)CC(C)C3)cc12 (centres unmarked) [compound 297] | < 5 µM | – |
| CCN(CC)S(=O)(=O)c1ccc2oc(C(=O)NCc3ccc(C)cc3)c(C)c2c1 [compound 298] | 5 to 20 µM | – |
| Cc1c(C(=O)N2CCC3(CC2)OCCO3)oc2ccc(S(=O)(=O)N3CCCC(C)C3)cc12 (centres unmarked) [compound 299] | – | 5 to 20 µM |
| Cc1c(C(=O)N2CCCCC2)oc2ccc(S(=O)(=O)N3CCCC(C)C3)cc12 (centres unmarked) [compound 300] | < 5 µM | – |
| CCNC(=O)c1[nH]c2ccc(S(=O)(=O)N3CCC(C)CC3)cc2c1C [compound 301] | 5 to 20 µM | – |
| Cc1c(C(=O)NC2CC2)oc2ccc(S(=O)(=O)NCc3ccncc3)cc12 [compound 302] | < 20 µM | – |
| CNC(=O)c1cc2cc(S(=O)(=O)N3CCCCCC3)ccc2[nH]1 [compound 303] | < 5 µM | – |
| O=C(NC1CCCC1)c1cc2cc(S(=O)(=O)N3CCCCCC3)ccc2o1 [compound 304] | < 5 µM | – |
| Cc1c(C(=O)NCc2ccccc2)oc2ccc(S(=O)(=O)N3CCCCC3)cc12 [compound 305] | 5 to 20 µM | – |
| CC1CCN(S(=O)(=O)c2ccc3[nH]cc(C(N)=O)c3c2)CC1 [compound 306] | < 20 µM | – |
| Cc1c(C(=O)N2CCC(C)CC2)oc2ccc(S(=O)(=O)N3CCCCCC3)cc12 [compound 307] | < 5 µM | – |
| CCN(CC)S(=O)(=O)c1ccc2oc(C(=O)N(C)Cc3ccccc3)c(C)c2c1 [compound 308] | < 5 µM | – |
| Cc1c(C(=O)NC2CCCCC2)[nH]c2ccc(S(=O)(=O)N3CCCCCC3)cc12 [compound 309] | < 5 µM | – |
| CCNC(=O)c1oc2ccc(S(=O)(=O)N3CCCC(C)C3)cc2c1C (centres unmarked) [compound 310] | 5 to 20 µM | – |
| CC1CCN(S(=O)(=O)c2ccc3oc(C(=O)N4CCCCC4)cc3c2)CC1 [compound 311] | < 5 µM | – |
| CN(c1ccc2[nH]c(C(=O)NC3CC3)cc2c1)S(=O)(=O)c1ccccc1 [compound 312] | 5 to 20 µM | – |
| CC1CCN(S(=O)(=O)c2ccc3[nH]c(C(=O)N4CCN(C)CC4)cc3c2)CC1 [compound 313] | 5 to 20 µM | – |
| CCN(CC)C(=O)c1cc2cc(S(=O)(=O)N3CC(C)CC(C)C3)ccc2n1CC(O)CN(C)C (centres unmarked) [compound 314] | 5 to 20 µM | – |
| CCN(CC)C(=O)c1cc2cc(S(=O)(=O)N3CCC(C)CC3)ccc2[nH]1 [compound 315] | < 5 µM | – |
| Cc1c(C(=O)NC2CC2)oc2ccc(S(=O)(=O)Nc3ncns3)cc12 [compound 316] | < 20 µM | – |
| Cc1c(C(=O)N(C)Cc2ccccc2)oc2ccc(S(=O)(=O)N3CCCCCC3)cc12 [compound 317] | < 5 µM | – |
